In US20230391752A1, “PYRROLIDINE-3-CARBOXAMIDE DERIVATIVES AND RELATED USES” (Chulalongkorn University, priority 2020, published 2023):

Test system: HBV
Experiment: In vitro anti-HBV activity in HepG2.2.15 cell line (intracellular HBV DNA by qPCR at 1 μM)
Format: cell-based
Details: Hepatitis B virus, 144 h; HepG2.2.15 cells, 1 μM compound, 6 days, intracellular HBV DNA as percentage compared to vehicle control (0.5% DMSO)
Experimental: The stable transfected HBV cell line, called HepG2.2.15 cells was a valuable model with high reproducibility and commonly used for drug screening. To identify the anti-HBV activity, HepG2.2.15 cells were seeded at 5×10^5 cells/well with high glucose Dulbecco's modified Eagle medium (DMEM) containing 10% heat inactivated fetal bovine serum (FBS), 300 mg/L G418, non-essential amino acids (NEAA) 100 units/ml Antibiotic-Antimycotic, and allowed to stand for an overnight in an incubator set at 37° C. and 5% C02. HepG2.2.15 cells in each well were treated with the medium containing a compound (1 μM with 0.5% dimethyl sulfoxide (DMSO final concentration) for three days in the incubator. After that the medium was removed and fresh medium containing the compound was added to the cells for another 3 days. After 6 days of treatment, intracellular HBV DNA was extracted and determined by using quantitative real-time PCR (qPCR) technique with specific primers. Intrahepatic HBV DNA viral load was reported as percentage compared to vehicle control (0.5% DMSO) as shown in Table A.
“B” means % ranging between 80 and 90; “C” means % ranging between 70 and 80; “D” means % ranging between 60 and 70; “E” means % ranging between 45 and 60, “F” means %<45.

| Structure (SMILES) | activity at 1 µM |
| --- | --- |
| N#Cc1c[nH]c(C(=O)N2CC[C@H](C(=O)Nc3ccc(F)c(Cl)c3)C2)c1 [Example 40, (S)—N-(3-chloro-4-fluorophenyl)-1-(4-cyano-1H-pyrrole-2-carbonyl)pyrrolidine-3-carboxamide] | > 90% |
| N#Cc1cc(NC(=O)[C@H]2CCN(C(=O)c3ccc(-c4ccncc4)[nH]3)C2)ccc1F [Example 78, (S)—N-(3-cyano-4-fluorophenyl)-1-(5-(pyridin-4-yl)-1H-pyrrole-2-carbonyl)pyrrolidine-3-carboxamide] | 70 to 80% |
| C[C@H]1[C@@H](C(=O)Nc2ccc(F)c(C#N)c2)CCN1C(=O)c1cc2cccnc2[nH]1 [Example 21, (2S,3S)—N-(3-cyano-4-fluorophenyl)-2-methyl-1-(1H-pyrrolo[2,3-b]pyridine-2-carbonyl) pyrrolidine-3-carboxamide] | > 90% |
| O=C(Nc1cc(F)c(F)c(F)c1)[C@H]1CCN(C(=O)c2ccc(C3CC3)[nH]2)C1 [Example 73, (S)-1-(5-cyclopropyl-1H-pyrrole-2-carbonyl)-N-(3,4,5-trifluorophenyl)pyrrolidine-3-carboxamide] | 45 to 60% |
| O=C(Nc1cc(F)c(F)c(F)c1)[C@H]1CCN(C(=O)c2ccc(Cc3cccnc3)[nH]2)C1 [Example 143, (S)-1-(5-(pyridin-3-ylmethyl)-1H-pyrrole-2-carbonyl)-N-(3,4,5-trifluorophenyl)pyrrolidine-3-carboxamide] | > 90% |
| O=C(Nc1cc(F)c(F)c(F)c1)[C@H]1CCN(C(=O)c2nc3cccnc3[nH]2)C1 [Example 67, (S)-1-(3H-imidazo[4,5-b]pyridine-2-carbonyl)-N-(3,4,5-trifluorophenyl)pyrrolidine-3-carboxamide] | 45 to 60% |
| COc1cc2cc(C(=O)N3CC[C@H](C(=O)Nc4cc(F)c(F)c(F)c4)C3)[nH]c2cn1 [Example 12, (S)-1-(5-methoxy-1H-pyrrolo[2,3-c]pyridine-2-carbonyl)-N-(3,4,5-trifluorophenyl)pyrrolidine-3-carboxamide] | 80 to 90% |
| Cc1ccnnc1-c1ccc(C(=O)N2CC[C@H](C(=O)Nc3cc(F)c(F)c(F)c3)C2)[nH]1 [Example 98, (S)-1-(5-(4-methylpyridazin-3-yl)-1H-pyrrole-2-carbonyl)-N-(3,4,5-trifluorophenyl) pyrrolidine-3-carboxamide] | 70 to 80% |
| N#Cc1cc(NC(=O)[C@H]2CCN(C(=O)c3cc4cccnc4[nH]3)C2)ccc1F [Example 18, (S)—N-(3-cyano-4-fluorophenyl)-1-(1H-pyrrolo[2,3-b]pyridine-2-carbonyl)pyrrolidine-3-carboxamide] | 70 to 80% |
| Cc1nn(C)c(C)c1-c1ccc(C(=O)N2CC[C@H](C(=O)Nc3cc(F)c(F)c(F)c3)C2)[nH]1 [Example 88, (S)—N-(3,4,5-trifluorophenyl)-1-(5-(1,3,5-trimethyl-1H-pyrazol-4-yl)-1H-pyrrole-2-carbonyl) pyrrolidine-3-carboxamide] | < 45% |
| O=C(Nc1cc(F)c(F)c(Br)c1)[C@H]1CCN(C(=O)c2cc3cnccc3[nH]2)C1 [Example 53, (S)—N-(3-bromo-4,5-difluorophenyl)-1-(1H-pyrrolo[3,2-c]pyridine-2-carbonyl)pyrrolidine-3-carboxamide] | 70 to 80% |
| N#Cc1ccc2[nH]c(C(=O)N3CC[C@H](C(=O)Nc4cc(F)c(F)c(F)c4)C3)cc2c1 [Example 8, (S)-1-(5-cyano-1H-indole-2-carbonyl)-N-(3,4,5-trifluorophenyl)pyrrolidine-3-carboxamide] | 80 to 90% |
| Cc1ccc(C(=O)N2CC[C@H](C(=O)Nc3cc(F)c(F)c(Br)c3)[C@@H]2C)[nH]1 [Example 58, (2S,3S)—N-(3-bromo-4,5-difluorophenyl)-2-methyl-1-(5-methyl-1H-pyrrole-2-carbonyl)pyrroline-3-carboxamide] | 70 to 80% |
| Cn1cc(-c2ccc(C(=O)N3CC[C@H](C(=O)Nc4cc(F)c(F)c(F)c4)C3)[nH]2)c2ccncc21 [Example 158, (S)-1-(5-(1-methyl-1H-pyrrolo[2,3-c]pyridin-3-yl)-1H-pyrrole-2-carbonyl)-N-(3,4,5-trifluorophenyl)pyrrolidine-3-carboxamide] | 60 to 70% |
| Cc1ccc(C(=O)N2CC[C@H](C(=O)Nc3ccc(F)c(C#N)c3)[C@@H]2C)[nH]1 [Example 66, (2S,3S)—N-(3-cyano-4-fluorophenyl)-2-methyl-1-(5-methyl-1H-pyrrole-2-carbonyl)pyrrolidine-3-carboxamide] | 45 to 60% |
| O=C(Nc1cc(F)c(F)c(F)c1)[C@H]1CCN(C(=O)c2ccc(CO)[nH]2)C1 [Example 56, (S)-1-(5-(hydroxymethyl)-1H-pyrrole-2-carbonyl)-N-(3,4,5-trifluorophenyl)pyrrolidine-3-carboxamide] | > 90% |

| Structure (SMILES) | activity at 1 µM |
| --- | --- |
| Cc1ccc2[nH]c(C(=O)N3CC[C@H](C(=O)Nc4cc(F)c(F)c(F)c4)C3)cc2c1 [Example 55, (S)-1-(5-methyl-1H-indole-2-carbonyl)-N-(3,4,5-trifluorphenyl)pyrrolidine-3-carboxamide] | > 90% |
| N#Cc1cc(NC(=O)[C@H]2CCN(C(=O)c3ccc(Cl)[nH]3)C2)ccc1F [Example 22, (S)-1-(5-chloro-1H-pyrrole-2-carbonyl)-N-(3-cyano-4-fluorophenyl)pyrrolidine-3-carboxamide] | 60 to 70% |
| Cc1cc(NC(=O)[C@@H]2CN(C(=O)c3ccc(-c4c(C)ncnc4C)[nH]3)C[C@H]2C)ccc1F [Example 168, (3S,4S)-1-(5-(4,6-dimethylpyrimidin-5-yl)-1H-pyrrole-2-carbonyl)-N-(4-fluoro-3-methylphenyl)-4-methylpyrrolidine-3-carboxamide] | 45 to 60% |
| O=C(Nc1cc(F)c(F)c(F)c1)[C@H]1CCN(C(=O)c2cc3nccnc3[nH]2)C1 [Example 23, (S)-1-(5H-pyrrolo[2,3-b]pyrazine-6-carbonyl)-N-(3,4,5-trifluorophenyl)pyrrolidine-3-carboxamide] | 70 to 80% |
| Cc1nn(C)cc1Cc1ccc(C(=O)N2CC[C@H](C(=O)Nc3cc(F)c(F)c(F)c3)C2)[nH]1 [Example 146, (S)-1-(5-((1,3-dimethyl-1H-pyrazol-4-yl)methyl)-1H-pyrrole-2-carbonyl)-N-(3,4,5-trifluorophenyl)pyrrolidine-3-carboxamide] | 70 to 80% |
| O=C(Nc1cc(F)c(F)c(F)c1)[C@H]1CCN(C(=O)c2[nH]c3ncccc3c2Cl)C1 [Example 59, (S)-1-(3-chloro-1H-pyrrolo[2,3-b]pyridine-2-carbonyl)-N-(3,4,5-trifluorophenyl)pyrrolidine-3-carboxamide] | 45 to 60% |
| O=C(Nc1cc(F)c(F)c(F)c1)[C@H]1CCN(C(=O)c2sccc2Cl)C1 [Example 3, (S)-1-(3-chlorothiophene-2-carbonyl)-N-(3,4,5-trifluorophenyl)pyrrolidine-3-carboxamide] | 70 to 80% |
| Cc1ncn(C)c1-c1ccc(C(=O)N2CC[C@H](C(=O)Nc3cc(F)c(F)c(F)c3)C2)[nH]1 [Example 107, (S)-1-(5-(1,4-dimethyl-1H-imidazol-5-yl)-1H-pyrrole-2-carbonyl)-N-(3,4,5-trifluorophenyl) pyrrolidine-3-carboxamide] | 70 to 80% |
| Cc1ccc(C(=O)N2CC[C@H](C(=O)Nc3cc(F)c(F)c(F)c3)C2)[nH]1 [Example 1, (S)-1-(5-methyl-1H-pyrrole-2-carbonyl)-N-(3,4,5-trifluorophenyl)pyrrolidine-3-carboxamide] | 45 to 60% |
| Cc1cc(NC(=O)[C@H]2CCN(C(=O)c3cc4cccnc4[nH]3)C2)ccc1F [Example 24, (S)—N-(4-fluoro-3-methylphenyl)-1-(1H-pyrrolo[2,3-b]pyridine-2-carbonyl)pyrrolidine-3-carboxamide] | 60 to 70% |
| Cc1ncccc1Cc1ccc(C(=O)N2CC[C@H](C(=O)Nc3cc(F)c(F)c(F)c3)C2)[nH]1 [Example 145, (S)-1-(5-((2-methylpyridin-3-yl)methyl)-1H-pyrrole-2-carbonyl)-N-(3,4,5-trifluorophenyl)pyrrolidine-3-carboxamide] | 70 to 80% |
| Cc1ncccc1-c1ccc(C(=O)N2CC[C@H](C(=O)Nc3ccc(F)c(C#N)c3)C2)[nH]1 [Example 81, (S)—N-(3-cyano-4-fluorophenyl)-1-(5-(2-methylpyridin-3-yl)-1H-pyrrole-2-carbonyl) pyrrolidine-3-carboxamide] | 45 to 60% |
| O=C(Nc1cc(F)c(F)c(F)c1)[C@H]1CCN(C(=O)c2[nH]c3ccccc3c2-c2cn[nH]c2)C1 [Example 140, (S)-1-(3-(1H-pyrazol-4-yl)-1H-indole-2-carbonyl)-N-(3,4,5-trifluorophenyl)pyrrolidine-3-carboxamide] | > 90% |
| Cc1cn[nH]c(=O)c1-c1ccc(C(=O)N2CC[C@H](C(=O)Nc3cc(F)c(F)c(F)c3)C2)[nH]1 [Example 124, (S)-1-(5-(5-methyl-3-oxo-2,3-dihydropyridazin-4-yl)-1H-pyrrole-2-carbonyl)-N-(3,4,5-trifluorophenyl)pyrrolidine-3-carboxamide] | 45 to 60% |
| Cc1ncnc(C)c1-c1cccc2c(Cl)c(C(=O)N3CC[C@H](C(=O)Nc4ccc(F)c(C#N)c4)C3)[nH]c12 [Example 137, (S)-1-(3-chloro-7-(4,6-dimethylpyrimidin-5-yl)-1H-indole-2-carbonyl)-N-(3-cyano-4-fluorophenyl)pyrrolidine-3-carboxamide] | 45 to 60% |
